In patent publication US20230085307A1, “PYRIDAZINONE COMPOUND AND HERBICIDE” (NISSAN CHEMICAL CORPORATION, priority 2019, published 2023):

Experiments:
[1] = tested on: green foxtail; assay: Test Example 4: herbicidal effect by soil treatment (Table 19, symbol G); type: in vivo, green foxtail (Setaria viridis); settings: amount of applied herbicide 320 g/ha
Outline: (§1)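 Pre-emergence style soil spray: seeds under ~1.5 cm sterilized diluvial soil received a uniform coat of emulsion diluted to the predetermined herbicide amount. Greenhouse 25–30° C; readout at week three on previously defined criteria.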

[2] = tested on: chickweed; assay: Test Example 5: herbicidal effect by foliage application, plastic box (Table 20, symbol P); type: in vivo, common chickweed (Stellaria media); settings: foliage application, evaluated three weeks after application
Outline: (§2)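 Plants were sown into sterilized diluvial soil under about 1.5 cm cover and kept in a greenhouse at 25° C. to 30° C. Fourteen days on, foliage received an even spray of the diluted emulsion. Herbicidal or crop effect was judged three weeks afterwards.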

[3] = tested on: windgrass; assay: Test Example 5: herbicidal effect by foliage application, plastic box (Table 20, symbol L); type: in vivo, windgrass (Apera spica-venti); settings: foliage application, evaluated three weeks after application
Outline: as §2

[4] = tested on: wild oat; assay: Test Example 5: herbicidal effect by foliage application, plastic box (Table 20, symbol I); type: in vivo, wild oat (Avena fatua); settings: foliage application, evaluated three weeks after application
Outline: as §2

[5] = tested on: blackgrass; assay: Test Example 5: herbicidal effect by foliage application, plastic box (Table 20, symbol J); type: in vivo, blackgrass (Alopecurus myosuroides); settings: foliage application, evaluated three weeks after application
Outline: as §2

[6] = tested on: barnyard grass; assay: Test Example 3: herbicidal effect by foliage application, Wagner pot (Table 18, symbol H); type: in vivo, barnyard grass (Echinochloa crus-galli); settings: amount of applied herbicide 320 g/ha
Outline: (§3)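 Plants were sown in alluvial soil held under 0.1–0.5 cm standing water and grown 14 days in a greenhouse at 25–30 °C. An emulsifiable formulation, water-diluted to the set dose, was then sprayed onto the foliage, and effects were scored three weeks later using previously defined criteria.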

[7] = tested on: velvetleaf; assay: Test Example 5: herbicidal effect by foliage application, plastic box (Table 20, symbol M); type: in vivo, velvetleaf (Abutilon theophrasti); settings: foliage application, evaluated three weeks after application
Outline: as §2

[8] = tested on: barnyard grass; assay: Test Example 5: herbicidal effect by foliage application, plastic box (Table 20, symbol H); type: in vivo, barnyard grass (Echinochloa crus-galli); settings: foliage application, evaluated three weeks after application
Outline: as §2

[9] = tested on: rice flat sedge; assay: Test Example 3: herbicidal effect by foliage application, Wagner pot (Table 18, symbol E); type: in vivo, rice flat sedge (Cyperus iria); settings: amount of applied herbicide 320 g/ha
Outline: as §3

[10] = tested on: Chinese sprangletop; assay: Test Example 3: herbicidal effect by foliage application, Wagner pot (Table 18, symbol D); type: in vivo, chinese sprangletop (Leptochloa chinensis); settings: amount of applied herbicide 320 g/ha
Outline: as §3

[11] = tested on: blackgrass; assay: Test Example 4: herbicidal effect by soil treatment (Table 19, symbol J); type: in vivo, blackgrass (Alopecurus myosuroides); settings: amount of applied herbicide 320 g/ha
Outline: as §1

[12] = tested on: redroot pigweed; assay: Test Example 4: herbicidal effect by soil treatment (Table 19, symbol N); type: in vivo, redroot pigweed (Amaranthus retroflexus); settings: amount of applied herbicide 320 g/ha
Outline: as §1

[13] = tested on: lambsquarters; assay: Test Example 4: herbicidal effect by soil treatment (Table 19, symbol O); type: in vivo, lambsquarters (Chenopodium album); settings: amount of applied herbicide 320 g/ha
Outline: as §1

[14] = tested on: lambsquarters; assay: Test Example 5: herbicidal effect by foliage application, plastic box (Table 20, symbol O); type: in vivo, lambsquarters (Chenopodium album); settings: foliage application, evaluated three weeks after application
Outline: as §2

[15] = tested on: chickweed; assay: Test Example 4: herbicidal effect by soil treatment (Table 19, symbol P); type: in vivo, common chickweed (Stellaria media); settings: amount of applied herbicide 320 g/ha
Outline: as §1

[16] = tested on: southern crabgrass; assay: Test Example 4: herbicidal effect by soil treatment (Table 19, symbol F); type: in vivo, southern crabgrass (Digitaria ciliaris); settings: amount of applied herbicide 320 g/ha
Outline: as §1

[17] = tested on: wild oat; assay: Test Example 4: herbicidal effect by soil treatment (Table 19, symbol I); type: in vivo, wild oat (Avena fatua); settings: amount of applied herbicide 320 g/ha
Outline: as §1

[18] = tested on: green foxtail; assay: Test Example 5: herbicidal effect by foliage application, plastic box (Table 20, symbol G); type: in vivo, green foxtail (Setaria viridis); settings: foliage application, evaluated three weeks after application
Outline: as §2

[19] = tested on: persian speedwell; assay: Test Example 5: herbicidal effect by foliage application, plastic box (Table 20, symbol R); type: in vivo, Persian speedwell (Veronica persica); settings: foliage application, evaluated three weeks after application
Outline: as §2

[20] = tested on: persian speedwell; assay: Test Example 4: herbicidal effect by soil treatment (Table 19, symbol R); type: in vivo, Persian speedwell (Veronica persica); settings: amount of applied herbicide 320 g/ha
Outline: as §1

[21] = tested on: redroot pigweed; assay: Test Example 5: herbicidal effect by foliage application, plastic box (Table 20, symbol N); type: in vivo, redroot pigweed (Amaranthus retroflexus); settings: foliage application, evaluated three weeks after application
Outline: as §2

[22] = tested on: windgrass; assay: Test Example 4: herbicidal effect by soil treatment (Table 19, symbol L); type: in vivo, windgrass (Apera spica-venti); settings: amount of applied herbicide 320 g/ha
Outline: as §1

[23] = tested on: Italian ryegrass; assay: Test Example 5: herbicidal effect by foliage application, plastic box (Table 20, symbol K); type: in vivo, Italian ryegrass (Lolium multiflorum); settings: foliage application, evaluated three weeks after application
Outline: as §2

[24] = tested on: southern crabgrass; assay: Test Example 5: herbicidal effect by foliage application, plastic box (Table 20, symbol F); type: in vivo, southern crabgrass (Digitaria ciliaris); settings: foliage application, evaluated three weeks after application
Outline: as §2

[25] = tested on: barnyard grass; assay: Test Example 4: herbicidal effect by soil treatment (Table 19, symbol H); type: in vivo, barnyard grass (Echinochloa crus-galli); settings: amount of applied herbicide 320 g/ha
Outline: as §1

[26] = tested on: Italian ryegrass; assay: Test Example 4: herbicidal effect by soil treatment (Table 19, symbol K); type: in vivo, Italian ryegrass (Lolium multiflorum); settings: amount of applied herbicide 320 g/ha
Outline: as §1

[27] = tested on: velvetleaf; assay: Test Example 4: herbicidal effect by soil treatment (Table 19, symbol M); type: in vivo, velvetleaf (Abutilon theophrasti); settings: amount of applied herbicide 320 g/ha
Outline: as §1

CCCC(=O)Oc1c(C)nn(C)c(=O)c1-c1c(-c2cccc(OCC)c2)sc2ccc(F)cc12 [2-212]
G: green foxtail, herbicidal effect rating [1]: 4 (Herbicidal rate of 70% or more and less than 90%) | herbicidal effect on P: chickweed (criteria 0-5) ([2]; 320 g/ha): 5 (Herbicidal rate of 90% or more (almost completely withered)) | herbicidal effect on L: windgrass (criteria 0-5) ([3]; 320 g/ha): 3 (Herbicidal rate of 40% or more and less than 70%) | herbicidal effect on I: wild oat (criteria 0-5) ([4]; 320 g/ha): 0 (Herbicidal rate of 5% or less (almost no effect)) | herbicidal effect on J: blackgrass (criteria 0-5) ([5]; 320 g/ha): 0 (Herbicidal rate of 5% or less (almost no effect)) | herbicidal effect on H: barnyard grass [6]: 5 (Herbicidal rate of 90% or more (almost completely withered)) | herbicidal effect on M: velvetleaf (criteria 0-5) ([7]; 320 g/ha): 3 (Herbicidal rate of 40% or more and less than 70%) | herbicidal effect on H: barnyard grass (criteria 0-5) ([8]; 320 g/ha): 4 (Herbicidal rate of 70% or more and less than 90%) | herbicidal effect on E: rice flat sedge [9]: 4 (Herbicidal rate of 70% or more and less than 90%) | herbicidal effect on D: Chinese sprangletop [10]: 3 (Herbicidal rate of 40% or more and less than 70%) | J: blackgrass, herbicidal effect rating [11]: 0 (Herbicidal rate of 5% or less (almost no effect)) | N: redroot pigweed, herbicidal effect rating [12]: 3 (Herbicidal rate of 40% or more and less than 70%) | O: lambsquarters, herbicidal effect rating [13]: 1 (Herbicidal rate of 5% or more and less than 20%) | herbicidal effect on O: lambsquarters (criteria 0-5) ([14]; 320 g/ha): 3 (Herbicidal rate of 40% or more and less than 70%) | P: chickweed, herbicidal effect rating [15]: 1 (Herbicidal rate of 5% or more and less than 20%) | F: southern crabgrass, herbicidal effect rating [16]: 3 (Herbicidal rate of 40% or more and less than 70%) | I: wild oat, herbicidal effect rating [17]: 0 (Herbicidal rate of 5% or less (almost no effect)) | herbicidal effect on G: green foxtail (criteria 0-5) ([18]; 320 g/ha): 5 (Herbicidal rate of 90% or more (almost completely withered)) | herbicidal effect on R: persian speedwell (criteria 0-5) ([19]; 320 g/ha): 5 (Herbicidal rate of 90% or more (almost completely withered)) | R: persian speedwell, herbicidal effect rating [20]: 4 (Herbicidal rate of 70% or more and less than 90%) | herbicidal effect on N: redroot pigweed (criteria 0-5) ([21]; 320 g/ha): 5 (Herbicidal rate of 90% or more (almost completely withered)) | L: windgrass, herbicidal effect rating [22]: 0 (Herbicidal rate of 5% or less (almost no effect)) | herbicidal effect on K: Italian ryegrass (criteria 0-5) ([23]; 320 g/ha): 4 (Herbicidal rate of 70% or more and less than 90%) | herbicidal effect on F: southern crabgrass (criteria 0-5) ([24]; 320 g/ha): 5 (Herbicidal rate of 90% or more (almost completely withered)) | H: barnyard grass, herbicidal effect rating [25]: 5 (Herbicidal rate of 90% or more (almost completely withered)) | K: Italian ryegrass, herbicidal effect rating [26]: 3 (Herbicidal rate of 40% or more and less than 70%) | M: velvetleaf, herbicidal effect rating [27]: 0 (Herbicidal rate of 5% or less (almost no effect))

C#CCOc1c(C)nn(C)c(=O)c1-c1c(-c2ccc(OC(F)F)cc2)sc2ccc(F)cc12 [2-301]
herbicidal effect on G: green foxtail [1]: 0 (Herbicidal rate of 5% or less (almost no effect)) | P: chickweed, herbicidal effect (criteria 0-5) ([2]; AAH 320 g/ha): 5 (Herbicidal rate of 90% or more (almost completely withered)) | L: windgrass, herbicidal effect (criteria 0-5) ([3]; AAH 320 g/ha): 0 (Herbicidal rate of 5% or less (almost no effect)) | I: wild oat, herbicidal effect (criteria 0-5) ([4]; AAH 320 g/ha): 0 (Herbicidal rate of 5% or less (almost no effect)) | J: blackgrass, herbicidal effect (criteria 0-5) ([5]; AAH 320 g/ha): 0 (Herbicidal rate of 5% or less (almost no effect)) | herbicidal effect on H: barnyard grass [6]: 3 (Herbicidal rate of 40% or more and less than 70%) | M: velvetleaf, herbicidal effect (criteria 0-5) ([7]; AAH 320 g/ha): 5 (Herbicidal rate of 90% or more (almost completely withered)) | H: barnyard grass, herbicidal effect (criteria 0-5) ([8]; AAH 320 g/ha): 0 (Herbicidal rate of 5% or less (almost no effect)) | herbicidal effect on E: rice flat sedge [9]: 2 (Herbicidal rate of 20% or more and less than 40%) | herbicidal effect on D: Chinese sprangletop [10]: 0 (Herbicidal rate of 5% or less (almost no effect)) | herbicidal effect on J: blackgrass [11]: 0 (Herbicidal rate of 5% or less (almost no effect)) | herbicidal effect on N: redroot pigweed [12]: 0 (Herbicidal rate of 5% or less (almost no effect)) | herbicidal effect on O: lambsquarters [13]: 0 (Herbicidal rate of 5% or less (almost no effect)) | O: lambsquarters, herbicidal effect (criteria 0-5) ([14]; AAH 320 g/ha): 5 (Herbicidal rate of 90% or more (almost completely withered)) | herbicidal effect on P: chickweed [15]: 0 (Herbicidal rate of 5% or less (almost no effect)) | herbicidal effect on F: southern crabgrass [16]: 0 (Herbicidal rate of 5% or less (almost no effect)) | herbicidal effect on I: wild oat [17]: 0 (Herbicidal rate of 5% or less (almost no effect)) | G: green foxtail, herbicidal effect (criteria 0-5) ([18]; AAH 320 g/ha): 0 (Herbicidal rate of 5% or less (almost no effect)) | R: persian speedwell, herbicidal effect (criteria 0-5) ([19]; AAH 320 g/ha): 5 (Herbicidal rate of 90% or more (almost completely withered)) | herbicidal effect on R: persian speedwell [20]: 3 (Herbicidal rate of 40% or more and less than 70%) | N: redroot pigweed, herbicidal effect (criteria 0-5) ([21]; AAH 320 g/ha): 3 (Herbicidal rate of 40% or more and less than 70%) | herbicidal effect on L: windgrass [22]: 0 (Herbicidal rate of 5% or less (almost no effect)) | K: Italian ryegrass, herbicidal effect (criteria 0-5) ([23]; AAH 320 g/ha): 0 (Herbicidal rate of 5% or less (almost no effect)) | F: southern crabgrass, herbicidal effect (criteria 0-5) ([24]; AAH 320 g/ha): 0 (Herbicidal rate of 5% or less (almost no effect)) | herbicidal effect on H: barnyard grass [25]: 0 (Herbicidal rate of 5% or less (almost no effect)) | herbicidal effect on K: Italian ryegrass [26]: 0 (Herbicidal rate of 5% or less (almost no effect)) | herbicidal effect on M: velvetleaf [27]: 0 (Herbicidal rate of 5% or less (almost no effect))
